Tests used:
human PBMCs = assay: Human PBMC cytokine response assay (IFN-γ and IFN-α in cell-free medium by ELISA), with or without cPLGA; type: cell-based; settings: for IFN-γ (pg/ml) 28065: donor 28065 (high background), 1000 = outside assay limits; for IFN-γ (pg/ml) 28065 / IFN-α (pg/ml) 28065 / IFN-α (pg/ml) 28066 / IFN-γ (pg/ml) 28066 / IFN-α (pg/ml) 28067 / IFN-γ (pg/ml) 28067 / IFN-α (pg/ml) 28068 / IFN-γ (pg/ml) 28068 / IFN-α (pg/ml) mean / IFN-γ (pg/ml) mean: 20 ug/ml, 24 h, + PLGA = premixed with 100 μg/ml cPLGA; for IFN-α (pg/ml) 28065: donor 28065; for IFN-α (pg/ml) 28066 / IFN-γ (pg/ml) 28066: donor 28066; for IFN-α (pg/ml) 28067 / IFN-γ (pg/ml) 28067: donor 28067; for IFN-α (pg/ml) 28068 / IFN-γ (pg/ml) 28068: donor 28068; for IFN-α (pg/ml) mean / IFN-γ (pg/ml) mean: mean of donors 28065-28068;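 as to IFN-α (pg/ml) mean: 20 µg/mL compound for 24 hours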;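 as to IFN-γ (pg/ml) mean: 20 µg/mL compound for 24 hours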
CD19+ B cells = assay: Human B cell proliferation assay (3H-thymidine incorporation); settings: B cells, 2 μg/ml, Experiment B; for mean of both: mean of donors 121 and 194

Which “IFN-γ (pg/ml) 28065” value (human PBMCs) does the source give for “5′-TCGTCG-3′-HME-5′-ACGTTCG-3′-HME-5′-AGATGAT-3′ [Compound C-25]” here?
The value was 541 pg/mL.

What about the “IFN-α (pg/ml) 28065” value (human PBMCs) of the same substance?
Its value is 11 pg/mL.

What about the “IFN-α (pg/ml) 28066” value (human PBMCs) of the same substance?
The value was 0 pg/mL.

And the “IFN-γ (pg/ml) 28066” value (human PBMCs)?
The value was 6 pg/mL.

And the “IFN-α (pg/ml) 28067” value (human PBMCs)?
The value was 22 pg/mL.

And the “IFN-γ (pg/ml) 28067” value (human PBMCs)?
The value was 19 pg/mL.

What about the “IFN-α (pg/ml) 28068” value (human PBMCs) of the same substance?
The value was 79 pg/mL.

And the “IFN-γ (pg/ml) 28068” value (human PBMCs)?
The value was 337 pg/mL.

And the “IFN-α (pg/ml) mean” value (human PBMCs)?
The value was 28 pg/mL.

What about the “IFN-γ (pg/ml) mean” value (human PBMCs) of the same substance?
The value was 226 pg/mL.

And the cpm1 (CD19+ B cells; donor 121)?
The cpm1 was 34360 cpm.

And the cpm2 (CD19+ B cells; donor 121)?
The cpm2 was 35016 cpm.

And the cpm3 (CD19+ B cells; donor 121)?
Its cpm3 is 26480 cpm.

And the mean cpm (CD19+ B cells; donor 121 mean)?
The mean cpm was 31952 cpm.

And the cpm1 (CD19+ B cells; donor 194)?
Its cpm1 is 16060 cpm.

And the cpm2 (CD19+ B cells; donor 194)?
Its cpm2 is 19509 cpm.

And the cpm3 (CD19+ B cells; donor 194)?
Its cpm3 is 17384 cpm.

And the mean cpm (CD19+ B cells; donor 194 mean)?
Its mean cpm is 17651 cpm.

What about the mean of both (CD19+ B cells) of the same substance?
Its mean of both is 24802 cpm.

What does the source list for “5′-ACGTTCG-3′-HEG-5′-ACGTTCG-3′-HEG-5′-AGATGAT-3′ [Compound C-24]”?
IFN-α (human PBMCs; Table 10, donor 28042): 0 pg/mL; IFN-γ (human PBMCs; Table 10, donor 28042): 148 pg/mL; IFN-α (human PBMCs; Table 10, donor 28043): 0 pg/mL; IFN-γ (human PBMCs; Table 10, donor 28043): 156 pg/mL; IFN-α (human PBMCs; Table 10, donor 28044): 8 pg/mL; IFN-γ (human PBMCs; Table 10, donor 28044): 312 pg/mL; IFN-α (human PBMCs; Table 10, donor 28045): 0 pg/mL; IFN-γ (human PBMCs; Table 10, donor 28045): 26 pg/mL; IFN-α mean (human PBMCs; Table 10, mean of donors): 2 pg/mL; IFN-γ mean (human PBMCs; Table 10, mean of donors): 161 pg/mL; IFN-γ (pg/ml) 28065 (human PBMCs): 337 pg/mL; IFN-α (pg/ml) 28065 (human PBMCs): 28 pg/mL; IFN-α (pg/ml) 28066 (human PBMCs): 0 pg/mL; IFN-γ (pg/ml) 28066 (human PBMCs): 2 pg/mL; IFN-α (pg/ml) 28067 (human PBMCs): 8 pg/mL; IFN-γ (pg/ml) 28067 (human PBMCs): 4 pg/mL; IFN-α (pg/ml) 28068 (human PBMCs): 67 pg/mL; IFN-γ (pg/ml) 28068 (human PBMCs): 116 pg/mL; IFN-α (pg/ml) mean (human PBMCs): 26 pg/mL; IFN-γ (pg/ml) mean (human PBMCs): 115 pg/mL; cpm1 (CD19+ B cells; donor 121): 8206 cpm; cpm2 (CD19+ B cells; donor 121): 6789 cpm; cpm3 (CD19+ B cells; donor 121): 2799 cpm; mean cpm (CD19+ B cells; donor 121 mean): 5931 cpm; cpm1 (CD19+ B cells; donor 194): 3979 cpm; cpm2 (CD19+ B cells; donor 194): 3407 cpm; cpm3 (CD19+ B cells; donor 194): 3468 cpm; mean cpm (CD19+ B cells; donor 194 mean): 3618 cpm; mean of both (CD19+ B cells): 4775 cpm

Source: US9028845B2, “Chimeric immunomodulatory compounds and methods of using the same-IV” (Dynavax Technologies Corporation, priority 2001, dated 2015)
